Data taken from US20230219904A1 (SYNGENTA CROP PROTECTION AG, priority 2020, published 2023).

Columns and labels:
Format in all cases: in vivo
Settings in all cases: evaluated after 13 days
[1] = system: Abutilon theophrasti (ABUTH); test: Pre-emergence herbicidal glasshouse test (Table B1)
Method: (§1) Seeds of a variety of test species are sown in standard soil in pots (Lolium perenne (LOLPE), Amaranthus retoflexus (AMARE), Abutilon theophrasti (ABUTH), Setaria faberi (SETFA), Echinochloa crus-galh (ECHCG), Ipomoea hederacea (IPOHE)). After cultivation for one day (pre-emergence) or after 8 days cultivation (post-emergence) under controlled conditions in a glasshouse (at 24/16° C., day/night; 14 hours light; 65% humidity), the plants are sprayed with an aqueous spray solution derived from the formulation of the technical active ingredient in acetone/water (50:50) solution containing 0.5% Tween 20 (polyoxyethelyene sorbitan monolaurate, CAS RN 9005-64-5). Compounds are applied at 500 g/h unless otherwise indicated. The test plants are then grown in a glasshouse under controlled conditions in a glasshouse (at 24/16° C., day/night; 14 hours light; 65% humidity) and watered twice daily. After 13 days for pre and post-emergence, the test is evaluated for the percentage damage caused to the plant. The biological activities are shown in the following table on a five-point scale (5=80-100%; 4=60-79%; 3=40-59%; 2=20-39%; 1=0-19%).

[2] = system: Amaranthus retoflexus (AMARE); test: as above
Method: as §1

[3] = system: Echinochloa crus-galh (ECHCG); test: as above
Method: as §1

[4] = system: Ipomoea hederacea (IPOHE); test: as above
Method: as §1

Setaria faberi (SETFA) [5] = test: as above
Method: as §1

[6] = system: Amaranthus retoflexus (AMARE); test: Post-emergence herbicidal glasshouse test (Table B1)
Method: as §1

[7] = system: Echinochloa crus-galh (ECHCG); test: as above
Method: as §1

[8] = system: Ipomoea hederacea (IPOHE); test: as above
Method: as §1

Setaria faberi (SETFA) [9] = test: as above
Method: as §1

| SMILES | PRE Application ABUTH, percentage damage on five-point scale ([1]; applied at 125 g/ha) | PRE Application AMARE, percentage damage on five-point scale ([2]; applied at 125 g/ha) | PRE Application ECHCG, percentage damage on five-point scale ([3]; applied at 125 g/ha) | PRE Application IPOHE, percentage damage on five-point scale ([4]; applied at 125 g/ha) | PRE Application SETFA, percentage damage on five-point scale (Setaria faberi (SETFA) [5]; applied at 125 g/ha) | POST Application AMARE, percentage damage on five-point scale ([6]; applied at 125 g/ha) | POST Application ECHCG, percentage damage on five-point scale ([7]; applied at 125 g/ha) | POST Application IPOHE, percentage damage on five-point scale ([8]; applied at 125 g/ha) | POST Application SETFA, percentage damage on five-point scale (Setaria faberi (SETFA) [9]; applied at 125 g/ha) | PRE Application ABUTH, percentage damage on five-point scale ([1]; applied at 500 g/h) | PRE Application AMARE, percentage damage on five-point scale ([2]; applied at 500 g/h) | PRE Application ECHCG, percentage damage on five-point scale ([3]; applied at 500 g/h) | PRE Application IPOHE, percentage damage on five-point scale ([4]; applied) | PRE Application SETFA, percentage damage on five-point scale (Setaria faberi (SETFA) [5]; applied at 500 g/h) | POST Application AMARE, percentage damage on five-point scale ([6]; applied at 500 g/h) | POST Application ECHCG, percentage damage on five-point scale ([7]; applied at 500 g/h) | POST Application IPOHE, percentage damage on five-point scale ([8]; applied at 500 g/h) | POST Application SETFA, percentage damage on five-point scale (Setaria faberi (SETFA) [9]; applied at 500 g/h) |
| --- | --- | --- | --- | --- | --- | --- | --- | --- | --- | --- | --- | --- | --- | --- | --- | --- | --- | --- |
| CCn1nnnc1NC(=O)c1ccc(OC(F)(F)F)c(NC(=O)C2(C)CC2)c1Cl [Compound 1.075] | 5 (5=80-100%) | 5 (5=80-100%) | 5 (5=80-100%) | 5 (5=80-100%) | 5 (5=80-100%) | 4 (4=60-79%) | 4 (4=60-79%) | 4 (4=60-79%) | 5 (5=80-100%) | – | – | – | – | – | – | – | – | – |
| CCC(=O)Nc1c(OC(F)(F)F)ccc(C(=O)Nc2nnnn2CC)c1C [Compound 1.079] | 5 (5=80-100%) | 5 (5=80-100%) | 5 (5=80-100%) | 4 (4=60-79%) | 4 (4=60-79%) | 4 (4=60-79%) | 5 (5=80-100%) | 4 (4=60-79%) | 4 (4=60-79%) | – | – | – | – | – | – | – | – | – |
| CCCOCC(=O)Nc1c(OC(F)(F)F)ccc(C(=O)Nc2nnnn2CC)c1Cl [Compound 1.070] | 5 (5=80-100%) | 5 (5=80-100%) | 4 (4=60-79%) | 4 (4=60-79%) | 4 (4=60-79%) | 4 (4=60-79%) | 4 (4=60-79%) | 4 (4=60-79%) | 4 (4=60-79%) | – | – | – | – | – | – | – | – | – |
| CCn1nnnc1NC(=O)c1ccc(OC(F)(F)F)c(NC(=O)C(C)(F)F)c1Cl [Compound 1.060] | 5 (5=80-100%) | 5 (5=80-100%) | 4 (4=60-79%) | 3 (3=40-59%) | 4 (4=60-79%) | 5 (5=80-100%) | 4 (4=60-79%) | 4 (4=60-79%) | 5 (5=80-100%) | – | – | – | – | – | – | – | – | – |
| Cn1cc(C(=O)Nc2c(OC(F)(F)F)ccc(C(=O)Nc3nnnn3C)c2Cl)c(C(F)F)n1 [Compound 1.045] | 5 (5=80-100%) | 5 (5=80-100%) | 5 (5=80-100%) | 4 (4=60-79%) | 5 (5=80-100%) | 5 (5=80-100%) | 5 (5=80-100%) | 4 (4=60-79%) | 5 (5=80-100%) | – | – | – | – | – | – | – | – | – |
| CCC(C)C(=O)Nc1c(OC(F)(F)F)ccc(C(=O)Nc2nnnn2CC)c1Cl (stereo not drawn) [Compound 1.076] | 5 (5=80-100%) | 5 (5=80-100%) | 5 (5=80-100%) | 5 (5=80-100%) | 5 (5=80-100%) | 4 (4=60-79%) | 5 (5=80-100%) | 4 (4=60-79%) | 4 (4=60-79%) | – | – | – | – | – | – | – | – | – |
| CCOC(C)C(=O)Nc1c(OC(F)(F)F)ccc(C(=O)Nc2nnnn2CC)c1Cl (stereo not drawn) [Compound 1.073] | 5 (5=80-100%) | 5 (5=80-100%) | 5 (5=80-100%) | 5 (5=80-100%) | 5 (5=80-100%) | 5 (5=80-100%) | 5 (5=80-100%) | 4 (4=60-79%) | 5 (5=80-100%) | – | – | – | – | – | – | – | – | – |
| Cn1nnnc1NC(=O)c1ccc(OC(F)F)c(NC(=O)c2ncc(C(F)(F)F)cc2Cl)c1Cl [Compound 1.081] | 5 (5=80-100%) | 5 (5=80-100%) | 1 (1=0-19%) | 1 (1=0-19%) | 1 (1=0-19%) | 4 (4=60-79%) | 3 (3=40-59%) | 4 (4=60-79%) | 3 (3=40-59%) | – | – | – | – | – | – | – | – | – |
| CCC(=O)Nc1c(OC(F)(F)F)ccc(C(=O)Nc2nnnn2C)c1C [Compound 1.078] | 5 (5=80-100%) | 5 (5=80-100%) | 5 (5=80-100%) | 4 (4=60-79%) | 4 (4=60-79%) | 5 (5=80-100%) | 5 (5=80-100%) | 4 (4=60-79%) | 5 (5=80-100%) | – | – | – | – | – | – | – | – | – |
| CCOCCC(=O)Nc1c(OC(F)(F)F)ccc(C(=O)Nc2nnnn2C)c1Cl [Compound 1.057] | 5 (5=80-100%) | 5 (5=80-100%) | 5 (5=80-100%) | 5 (5=80-100%) | 4 (4=60-79%) | 5 (5=80-100%) | 5 (5=80-100%) | 4 (4=60-79%) | 5 (5=80-100%) | – | – | – | – | – | – | – | – | – |
| Cn1nnnc1NC(=O)c1ccc(OC(F)(F)F)c(NC(=O)C(F)F)c1Cl [Compound 1.059] | 5 (5=80-100%) | 5 (5=80-100%) | 4 (4=60-79%) | 3 (3=40-59%) | 1 (1=0-19%) | 5 (5=80-100%) | 5 (5=80-100%) | 3 (3=40-59%) | 4 (4=60-79%) | – | – | – | – | – | – | – | – | – |
| CCC(COC)C(=O)Nc1c(OC(F)(F)F)ccc(C(=O)Nc2nnnn2CC)c1Cl (stereo not drawn) [Compound 1.069] | 5 (5=80-100%) | 5 (5=80-100%) | 5 (5=80-100%) | 4 (4=60-79%) | 5 (5=80-100%) | 4 (4=60-79%) | 5 (5=80-100%) | 4 (4=60-79%) | 5 (5=80-100%) | – | – | – | – | – | – | – | – | – |
| Cc1cc(C(=O)Nc2c(OC(F)(F)F)ccc(C(=O)Nc3nnnn3C)c2Cl)nn1C [Compound 1.046] | 5 (5=80-100%) | 5 (5=80-100%) | 5 (5=80-100%) | 5 (5=80-100%) | 5 (5=80-100%) | 5 (5=80-100%) | 5 (5=80-100%) | 5 (5=80-100%) | 5 (5=80-100%) | – | – | – | – | – | – | – | – | – |
| Cn1nnnc1NC(=O)c1ccc(OC(F)(F)C(F)F)c(NC(=O)C2CC2)c1Cl [Compound 1.110] | – | – | – | – | – | – | – | – | – | 3 (3=40-59%) | 5 (5=80-100%) | 5 (5=80-100%) | 1 (1=0-19%) | 5 (5=80-100%) | 5 (5=80-100%) | 5 (5=80-100%) | 5 (5=80-100%) | 5 (5=80-100%) |
